“And” between values parts separate entries of the source, which are not always exact repeats. Equal values may be shown once. “Also recorded” adds a separate entry of the source. Read-outs that look alike come from different tables or passages of the source.
Key:
[1] = test system: β-glucuronidase activity in live, cultured bacterial cells; assay: β-glucuronidase activity in live, cultured bacterial cells (PNPG substrate); format: cell-based; details: 2 hour incubation
[2] = target: purified E. coli GUS (Escherichia coli (strain K12), UniProt P05804); assay: PNPG-PNP GUS cleavage assay, purified E. coli GUS; format: biochemical; details: preincubation one minute to four hours
[3] = target: E. coli GUS (Escherichia coli (strain K12), UniProt P05804); details: 30 minutes incubation, then NAD+ and UDH
Text: Addition of UDH and nicotinamide adenine dinucleotide (NAD+) to a reaction solution containing free GA results in the catalysis of free GA to D-glucurate and the concomitant reduction of NAD+ to NADH. NADH can be detected photometrically by monitoring absorbance at 340 nm (FIG. 4).

[4] = test system: GUS activity in live E. coli; assay: PNPG-PNP GUS cleavage assay, live E. coli
[5] = target: Purified bacterial β-glucuronidases (Escherichia coli, UniProt P05804); format: biochemical; details: PNPG substrate, 5 nM enzyme
Text: Successful drug candidate compounds were subjected to numerous biochemical and cellular assays. Purified bacterial β-glucuronidases were challenged with compounds to determine inhibition properties in a standard, robust activity assay, utilizing p-nitrophenyl glucuronide (PNPG) as the enzymatic substrate.

[6] = parent compound, read-out: Cell Based Inhibition IC50 (nM) Parent

Sequence of E. coli GUS (P05804 whole entry, looked up): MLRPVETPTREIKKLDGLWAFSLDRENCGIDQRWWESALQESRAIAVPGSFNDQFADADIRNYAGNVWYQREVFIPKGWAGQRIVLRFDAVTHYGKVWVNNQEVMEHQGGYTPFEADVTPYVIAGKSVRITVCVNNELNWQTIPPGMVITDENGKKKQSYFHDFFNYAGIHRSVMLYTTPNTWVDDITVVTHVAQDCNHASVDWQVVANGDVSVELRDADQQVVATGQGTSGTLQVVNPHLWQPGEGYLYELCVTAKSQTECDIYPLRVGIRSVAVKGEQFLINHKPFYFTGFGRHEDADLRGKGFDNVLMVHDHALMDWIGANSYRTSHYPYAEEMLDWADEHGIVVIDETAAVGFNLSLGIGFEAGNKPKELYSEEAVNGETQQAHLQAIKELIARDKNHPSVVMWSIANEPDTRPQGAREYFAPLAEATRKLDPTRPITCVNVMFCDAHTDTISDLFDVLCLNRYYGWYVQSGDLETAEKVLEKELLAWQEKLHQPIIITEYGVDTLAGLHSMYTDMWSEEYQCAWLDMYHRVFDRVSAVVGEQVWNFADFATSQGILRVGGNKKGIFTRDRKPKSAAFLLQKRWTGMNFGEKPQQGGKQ
Sequence of purified E. coli GUS (P05804 whole entry, looked up): as above

For CCOc1ccc(NC(=O)N(CCO)Cc2cc3cc(C)cc(C)c3[nH]c2=O)cc1, the IC50 [1, 6] was 890 nM.

CCOc1ccc(NC(=S)N(CCO)Cc2cc3cc(C)cc(C)c3[nH]c2=O)cc1 [Inh1, reference compound] gave an IC50 [1, 6] of 890 nM.

For CCOc1ccc(NC(=S)N(CCO[C@@H]2O[C@H](C(=O)O)[C@@H](O)[C@H](O)[C@H]2O)Cc2cc3cc(C)cc(C)c3[nH]c2=O)cc1 [Inh1-G], the IC50 ([1]; glucuronide of the compound, read-out: Cell Based Inhibition IC50 (nM) Glucuronide) was 8.8 nM, the IC50 [2] was roughly 1 µM and the “free GA / NADH formation after incubation with E. coli GUS (cleavage by GUS)” value [3] was “No free GA was detected; also recorded: does not cleave”. For the same compound, the “increase in potency in live E. coli” value ([4]; 1-min pre-incubation) was “approximately 20 fold”, the “increase in potency in live E. coli” value ([4]; 2-hr pre-incubation) was roughly 100 fold and the “increase in potency in live E. coli” value ([4]; 4-hr pre-incubation) was ~1000 fold and > 1000 fold. The IC50 ([4]; read-out: IC50 in live E. coli, after 4 hr incubation) was 0.001 µM.

With Cc1cc(C)c2[nH]c(=O)c(CN(CCO)C(=O)Nc3ccccc3-c3ccccc3)cc2c1 [Ref #14′, 1-[(6,8-dimethyl-2-oxo-1H-quinolin-3-yl)methyl]-1-(2-hydroxyethyl)-3-(2-phenylphenyl)urea] the IC50 [5] was 6.16 µM and 6.44 µM.

Compound Cc1cc(C)c2[nH]c(=O)c(CN(CCO)C(=O)Nc3cccnc3)cc2c1 [Ref #18′, 1-[(6,8-dimethyl-2-oxo-1H-quinolin-3-yl)methyl]-1-(2-hydroxyethyl)-3-(3-pyridyl)urea] has an IC50 [5] greater than 50 µM.

Work on Cc1cc(C)c2[nH]c(=O)c(C(C)N(CCO)C(=O)Nc3ccccc3C(C)C)cc2c1 (stereo not shown) [Ref #29′, 1-[1-(6,8-dimethyl-2-oxo-1H-quinolin-3-yl)ethyl]-1-(2-hydroxyethyl)-3-(2-isopropylphenyl)urea] yielded an IC50 [5] of 6.44 µM.

For Cc1cc(C)c2[nH]c(=O)c(C(C)N(CCO)C(=O)Nc3ccc(F)cc3I)cc2c1 (stereo not shown) [Ref #30′, 1-[1-(6,8-dimethyl-2-oxo-1H-quinolin-3-yl)ethyl]-3-(4-fluoro-2-iodo-phenyl)-1-(2-hydroxyethyl)urea], the IC50 [5] was 13 µM.

In the case of Cc1cc(C)c2[nH]c(=O)c(C(C)N(CCO)C(=O)Nc3ccccc3C)cc2c1 (stereo not shown) [Ref #31′, 1-[1-(6,8-dimethyl-2-oxo-1H-quinolin-3-yl)ethyl]-1-(2-hydroxyethyl)-3-(o-tolyl)urea], the IC50 [5] is reported as greater than 50 µM.

In the case of COc1ccc(NC(=O)N(CCO)C(C)c2cc3cc(C)cc(C)c3[nH]c2=O)cc1 (stereo not shown) [Ref #34′, 1-[1-(6,8-dimethyl-2-oxo-1H-quinolin-3-yl)ethyl]-1-(2-hydroxyethyl)-3-(4-methoxyphenyl)urea], the IC50 [5] is reported as greater than 50 µM.

Work on Cc1cccc(NC(=O)N(CCO)Cc2cc3cc(C)cc(C)c3[nH]c2=O)c1 [Ref #38′, 1-[(6,8-dimethyl-2-oxo-1H-quinolin-3-yl)methyl]-1-(2-hydroxyethyl)-3-(m-tolyl)urea] yielded an IC50 [5] of 1.66 µM.

With Cc1cc(C)c2[nH]c(=O)c(CN(CCO)C(=O)Nc3cccc(C(C)C)c3)cc2c1 [Ref #41′, 1-[(6,8-dimethyl-2-oxo-1H-quinolin-3-yl)methyl]-1-(2-hydroxyethyl)-3-(3-isopropylphenyl)urea] the IC50 [5] was 6.73 µM.

With C#Cc1cc(F)ccc1NC(=O)N(CCO)Cc1cc2cc(C)cc(C)c2[nH]c1=O [Ref #45′, 1-[(6,8-dimethyl-2-oxo-1H-quinolin-3-yl)methyl]-3-(2-ethynyl-4-fluoro-phenyl)-1-(2-hydroxyethyl)urea] the IC50 [5] was 1.1 µM.

For “chenodeoxycholate-glucuronide [reference compound]”, the “free GA / NADH formation after incubation with E. coli GUS (cleavage by GUS)” value [3] was “detected only for the positive control”.

Source: patent publication US12017994B2 (SYMBERIX, INC., priority 2017, dated 2024)
